Measurements as given in patent US6872725B2, “Solid-state forms of N-(2-hydroxyacetyl)-5-(4-piperidyl)-4-(4-pyrimidinyl)-3-(4-chlorophenyl) pyrazole” (Pharmacia Corporation, priority 2001, dated 2005).

Tests used:
[1] = slurry conversion of dihydrate crystals to Form I polymorph in tetrahydrofuran/water; format: physicochemical; details: 80:20 tetrahydrofuran/water mixture (volume basis), 25° C.
Method: The dihydrate crystalline form of Compound 1 also can be prepared, for example, by slurry conversion of the Form II polymorph in a tetrahydrofuran/water mixture. A sufficient amount of the Form II polymorph is added to an 80:20 tetrahydrofuran/water mixture (volume basis) to form a saturated solution at 25° C. The solution then spontaneously desaturates by precipitating dihydrate crystals. Once precipitated, the dihydrate crystals eventually convert to the more thermodynamically stable Form I polymorph.

[2] = physical stability of solid-state forms at ambient temperatures; format: physicochemical; details: compared with the other solid-state forms of Compound 1
Source text: In one embodiment, the invention comprises the Form I polymorph of Compound 1. […] Similarly, selection of a solid-state form of Compound 1 that is physically stable over a wide range of storage conditions (especially considering the different possible storage conditions that can occur during the lifetime of a Compound 1 product) can help avoid polymorphic or other degradative changes in the Compound 1 that can lead to product loss or deterioration of product efficacy.

| time before conversion to the more thermodynamically stable Form I polymorph [1] | Compound | physical stability at ambient temperatures [2] |
| --- | --- | --- |
| does not take place for about four days | O=C(CO)n1nc(-c2ccc(Cl)cc2)c(-c2ccncn2)c1C1CCNCC1 [dihydrate crystalline form, N-(2-hydroxyacetyl)-5-(4-piperidyl)-4-(4-pyrimidinyl)-3-(4-chlorophenyl)pyrazole] | – |
| – | O=C(CO)N1CCC(c2[nH]nc(-c3ccc(Cl)cc3)c2-c2ccncn2)CC1 [Form I polymorph, N-(2-hydroxyacetyl)-5-(4-piperidyl)-4-(4-pyrimidinyl)-3-(4-chlorophenyl)pyrazole] | greater physical stability at ambient temperatures than the other solid-state forms of Compound 1 |
